From article PMC2944806, “HLA Class I Binding of HBZ Determines Outcome in HTLV-1 Infection” (PLoS Pathogens, 2010)

How the values were obtained:
[1] = biological target: T1, HLA class I molecule A*2402 (Homo sapiens, UniProt P04439, D101N/D140Y/D185E/E176V/E190D/F33S/G103R/G107R/I119L/I121M/I306V/K335N/L105A/L180Q/L300P/N151K/N90K/Q86E/Q94H/R106L/R138H/R89G/T104I/T345S/V100E/W191G/Y123F); type: binding; conditions: REVEAL assay, assembly of peptide-HLA complex by ELISA with conformation-dependent anti-HLA antibody, relative to positive control peptide for that allele, comparable within an allele only
T1 construct: purchased ProImmune Ltd., Oxford, UK

[2] = biological target: HLA class I molecule B*3501 (Homo sapiens, UniProt P01889, A329T/A93T/A95T/C349S/D201E/D98Y/E176V/E187L/E204Q/E69T/I218V/K202T/L119I/Q94N/R155S/R180L/S121R/S35A/S48A/T118I/V127L/V306I/V36M/Y140S/Y91F); assay: REVEAL HLA-peptide binding assay, B*3501; conditions: assembly of peptide-HLA complex by ELISA with conformation-dependent anti-HLA antibody, relative to positive control peptide for that allele, comparable within an allele only
Method: The REVEAL HLA-peptide binding assay (ProImmune Ltd., Oxford, UK) was used to quantify peptide-HLA binding. For each allele-peptide combination that was tested, assembly of peptide-HLA complexes was quantified by ELISA with a conformation-dependent anti-HLA antibody. Samples of assembling peptide-HLA complexes were taken at a defined time point and snap-frozen in liquid nitrogen prior to analysis. The assembly for each peptide-HLA complex was then compared against a positive control peptide for that allele as the percentage of assembled peptide relative to that control. We selected four HLA class I alleles and 50 HTLV-1 peptides for each allele. The allele choice was based on allele frequency in the Kagoshima database and included 2 A alleles and 2 B alleles as well as alleles for which we knew that the epitope prediction tended to be poor. The 50 HTLV-1 nonamer peptides for each allele were selected to represent a range of predicted binding affinities, from weak to strong binding peptides. They originated from 4 HTLV-1 reference strain proteins: Tax, HBZ, Gag and Polymerase.
Note the binding score is with respect to a reference good binding peptide for each allele and therefore scores can be compared within an allele but not between alleles.

[3] = biological target: T2, HLA class I molecule A*0201 (Homo sapiens, UniProt P04439, D140Y/D185E/D98H/E176V/E277Q/G131W/G231S/I119V/I121R/I166T/I218V/L300P/L318F/N151K/N90K/P208A/P217A/Q86G/Q94H/R138H/R169H/T345S); type: binding; conditions: REVEAL assay, assembly of peptide-HLA complex by ELISA with conformation-dependent anti-HLA antibody, relative to positive control peptide for that allele, comparable within an allele only
T2 construct: purchased ProImmune Ltd., Oxford, UK

Sequence	Score (experimentally measured binding affinity, % binding compared to control peptide) [1] [%]	Score (experimentally measured binding affinity, % binding compared to control peptide) [2] [%]	Score (experimentally measured binding affinity, % binding compared to control peptide) [3] [%]
TTPNIPPSF [HTLV-1 nonamer peptide]	0.43	–	–
LPEDCLPTT [HTLV-1 nonamer peptide]	–	52.2	–
KQIAEYLKR [HTLV-1 nonamer peptide]	3.56	–	–
SWASILQGL [HTLV-1 nonamer peptide]	123.67	–	–
QLWLAAFAA [HTLV-1 nonamer peptide]	–	–	64.37
EYQQLWLAA [HTLV-1 nonamer peptide]	2.7	–	–
WALPELQAL [HTLV-1 nonamer peptide]	–	73.45	–
TWPLLPHVI [HTLV-1 nonamer peptide]	118.19	–	–
EPGPSSYDF [HTLV-1 nonamer peptide]	–	102.27	–
SFLLSHGLI [HTLV-1 nonamer peptide]	79.27	–	–
GIDGYTRQL [HTLV-1 nonamer peptide]	–	–	28.99
LWLAAFAAL [HTLV-1 nonamer peptide]	30.63	–	–
FPQCTILQY [HTLV-1 nonamer peptide]	–	103.38	–
EKAVLDGLL [HTLV-1 nonamer peptide]	0	–	–
PYKRIEELL [HTLV-1 nonamer peptide]	99.06	–	–
FPTQRTSKT [HTLV-1 nonamer peptide]	–	81.35	–
TLGQHLPTL [HTLV-1 nonamer peptide]	–	–	54.56
KYLYHYLRT [HTLV-1 nonamer peptide]	2.63	–	–
MQELGIDGY [HTLV-1 nonamer peptide]	–	48.1	–
YISQDFLNM [HTLV-1 nonamer peptide]	–	0	10.48
VLQSSSFIF [HTLV-1 nonamer peptide]	82.42	–	–

Sequence	Score (experimentally measured binding affinity, % binding compared to control peptide) [1] [%]	Score (experimentally measured binding affinity, % binding compared to control peptide) [2] [%]	Score (experimentally measured binding affinity, % binding compared to control peptide) [3] [%]
TLTAWQNGL [HTLV-1 nonamer peptide]	–	–	54.64
WTFTDGTPM [HTLV-1 nonamer peptide]	–	137.29	–
LLYKISLTT [HTLV-1 nonamer peptide]	–	–	78.05
LMGEVNYWQ [HTLV-1 nonamer peptide]	–	–	12.98
WTINHLNVL [HTLV-1 nonamer peptide]	–	1.04	–
EYLKRKEEE [HTLV-1 nonamer peptide]	0	–	–
EPEPEEDAL [HTLV-1 nonamer peptide]	–	28.71	–
DPILRSLAY [HTLV-1 nonamer peptide]	–	72.18	–
CPINYSLLA [HTLV-1 nonamer peptide]	–	102.68	–
QLLASAVLL [HTLV-1 nonamer peptide]	–	–	100.23
YILWDKQIL [HTLV-1 nonamer peptide]	–	0	39
VFTLSPVII [HTLV-1 nonamer peptide]	97.21	–	–
EPEEDALLL [HTLV-1 nonamer peptide]	–	11.92	–
AAGAALIPV [HTLV-1 nonamer peptide]	–	–	34.35
YLCSSLVAS [HTLV-1 nonamer peptide]	–	–	42.17
LLQYLCSSL [HTLV-1 nonamer peptide]	–	–	45.68
LQYLCSSLV [HTLV-1 nonamer peptide]	–	–	47.17
ALLGEIQWV [HTLV-1 nonamer peptide from Pol]	–	–	84.64
ILPEDCLPT [HTLV-1 nonamer peptide]	–	–	15.96
LPTTLFQPA [HTLV-1 nonamer peptide from Tax]	–	119.5	–
CPLCQDPTH [HTLV-1 nonamer peptide]	–	36.7	–

Sequence	Score (experimentally measured binding affinity, % binding compared to control peptide) [1] [%]	Score (experimentally measured binding affinity, % binding compared to control peptide) [2] [%]	Score (experimentally measured binding affinity, % binding compared to control peptide) [3] [%]
QLGAFLTNV [HTLV-1 nonamer peptide]	–	–	80.99
YLYQLSPPI [HTLV-1 nonamer peptide from Tax]	–	–	132.52
FMQTIRLAV [HTLV-1 nonamer peptide from Gag]	–	–	95.61
TLSFPDPGL [HTLV-1 nonamer peptide]	–	–	0
LVEELVDGL [HTLV-1 nonamer peptide]	–	0	2.64
QAAPGSPQF [HTLV-1 nonamer peptide]	–	86.5	–
WPLLPHVIF [HTLV-1 nonamer peptide]	–	49.66	–
EEEKQIAEY [HTLV-1 nonamer peptide]	–	8.99	–
KLLQEKEDL [HTLV-1 nonamer peptide]	–	–	0
QLDSLISEA [HTLV-1 nonamer peptide]	–	–	52.07
LLLDLPADI [HTLV-1 nonamer peptide]	–	–	77.78
LLITPVLQL [HTLV-1 nonamer peptide]	–	–	114.87
LLQEKEDLM [HTLV-1 nonamer peptide]	–	0	46.36
ELVDGLLSL [HTLV-1 nonamer peptide]	–	0	25.11
LASLLPKGY [HTLV-1 nonamer peptide]	–	98.24	–
TLYRLHVWV [HTLV-1 nonamer peptide]	–	–	73.87
ILIQTQAQI [HTLV-1 nonamer peptide]	–	–	79.21
QLEGEVESL [HTLV-1 nonamer peptide]	–	–	18.58
LTPPITHTT [HTLV-1 nonamer peptide]	–	0	31.05
